Source: ChEMBL document CHEMBL1201862, “PubChem BioAssay data set” (2004)
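These data come from cells grown in 96-well plates and exposed to compound for 48 hours at five concentrations. At the GI50, growth is halved.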 The source made the active and inactive calls. Cut-off read from the data, not from the text of the source: active = GI50 up to about 1.1 µM and inactive = higher.

How the values were obtained:
Assay in all cases: NCI-60 cell line screen, 48 h
786-0 = system: 786-0
A498 = system: A498
A549 = system: A549
ACHN = system: ACHN
BT-549 = system: BT-549
CAKI-1 = system: CAKI-1
CCRF-CEM = system: CCRF-CEM
COLO 205 = system: COLO 205
DU-145 = system: DU-145
EKVX = system: EKVX
HCC 2998 = system: HCC 2998
HCT-116 = system: HCT-116
HCT-15 = system: HCT-15
HOP-62 = system: HOP-62
HOP-92 = system: HOP-92
HT-29 = system: HT-29
Hs-578T = system: Hs-578T
IGROV-1 = system: IGROV-1
K562 = system: K562
KM12 = system: KM12
LOX IMVI = system: LOX IMVI
M14 = system: M14
MCF7 = system: MCF7
MDA-MB-231 = system: MDA-MB-231
MDA-MB-435 = system: MDA-MB-435
MDA-N = system: MDA-N
MOLT-4 = system: MOLT-4
Malme-3M = system: Malme-3M
NCI-H226 = system: NCI-H226
NCI-H23 = system: NCI-H23
NCI-H460 = system: NCI-H460
NCI-H522 = system: NCI-H522
NCI/ADR-RES = system: NCI/ADR-RES
OVCAR-3 = system: OVCAR-3
OVCAR-4 = system: OVCAR-4
OVCAR-5 = system: OVCAR-5
OVCAR-8 = system: OVCAR-8
PC-3 = system: PC-3
RPMI-8226 = system: RPMI-8226
RXF 393 = system: RXF 393
SF-268 = system: SF-268
SF-295 = system: SF-295
SF-539 = system: SF-539
SK-MEL-28 = system: SK-MEL-28
SK-MEL-2 = system: SK-MEL-2
SK-MEL-5 = system: SK-MEL-5
SN12C = system: SN12C
SNB-19 = system: SNB-19
SNB-75 = system: SNB-75
SR = system: SR
SW-620 = system: SW-620
TK-10 = system: TK-10
U-251 = system: U-251
UACC-257 = system: UACC-257
UACC-62 = system: UACC-62
UO-31 = system: UO-31
HL-60 = system: HL-60

## O=C1c2cc3ncsc3cc2C(=O)c2c(O)ccc(O)c21
786-0
  GI50: > 100 µM (inactive)
A498
  GI50: > 100 µM (inactive)
A549
  GI50: > 100 µM (inactive)
ACHN
  GI50: > 100 µM (inactive)
BT-549
  GI50: > 100 µM (inactive)
CAKI-1
  GI50: > 100 µM (inactive)
CCRF-CEM
  GI50: 98.9 µM (inactive)
COLO 205
  GI50: > 100 µM (inactive)
DU-145
  GI50: > 100 µM (inactive)
EKVX
  GI50: > 100 µM (inactive)
HCC 2998
  GI50: > 100 µM (inactive)
HCT-116
  GI50: > 100 µM (inactive)
HCT-15
  GI50: > 100 µM
HOP-62
  GI50: > 100 µM (inactive)
HOP-92
  GI50: > 100 µM (inactive)
HT-29
  GI50: > 100 µM (inactive)
Hs-578T
  GI50: > 100 µM (inactive)
IGROV-1
  GI50: > 100 µM (inactive)
K562
  GI50: > 100 µM (inactive)
KM12
  GI50: > 100 µM (inactive)
LOX IMVI
  GI50: > 100 µM (inactive)
M14
  GI50: > 100 µM (inactive)
MCF7
  GI50: > 100 µM (inactive)
MDA-MB-231
  GI50: > 100 µM (inactive)
MDA-MB-435
  GI50: > 100 µM (inactive)
MDA-N
  GI50: > 100 µM (inactive)
MOLT-4
  GI50: > 100 µM (inactive)
Malme-3M
  GI50: > 100 µM (inactive)
NCI-H226
  GI50: > 100 µM (inactive)
NCI-H23
  GI50: > 100 µM (inactive)
NCI-H460
  GI50: > 100 µM (inactive)
NCI-H522
  GI50: > 100 µM (inactive)
NCI/ADR-RES
  GI50: > 100 µM (inactive)
OVCAR-3
  GI50: > 100 µM (inactive)
OVCAR-4
  GI50: > 100 µM (inactive)
OVCAR-5
  GI50: > 100 µM (inactive)
OVCAR-8
  GI50: > 100 µM (inactive)
PC-3
  GI50: > 100 µM (inactive)
RPMI-8226
  GI50: > 100 µM (inactive)
RXF 393
  GI50: > 100 µM (inactive)
SF-268
  GI50: > 100 µM (inactive)
SF-295
  GI50: > 100 µM (inactive)
SF-539
  GI50: > 100 µM (inactive)
SK-MEL-28
  GI50: > 100 µM (inactive)
SK-MEL-2
  GI50: > 100 µM (inactive)
SK-MEL-5
  GI50: > 100 µM (inactive)
SN12C
  GI50: > 100 µM (inactive)
SNB-19
  GI50: > 100 µM (inactive)
SNB-75
  GI50: > 100 µM (inactive)
SR
  GI50: > 100 µM (inactive)
SW-620
  GI50: > 100 µM (inactive)
TK-10
  GI50: > 100 µM (inactive)
U-251
  GI50: > 100 µM (inactive)
UACC-257
  GI50: > 100 µM (inactive)
UACC-62
  GI50: > 100 µM (inactive)
UO-31
  GI50: > 100 µM (inactive)

## Nc1c(Cl)ncnc1NCC1(CO)CCC1
786-0
  GI50: > 100 µM (inactive)
A498
  GI50: > 100 µM (inactive)
A549
  GI50: > 100 µM (inactive)
ACHN
  GI50: > 100 µM (inactive)
BT-549
  GI50: > 100 µM (inactive)
CCRF-CEM
  GI50: > 100 µM (inactive)
COLO 205
  GI50: > 100 µM (inactive)
DU-145
  GI50: > 100 µM (inactive)
EKVX
  GI50: 90.4 µM (inactive)
HCT-116
  GI50: > 100 µM (inactive)
HCT-15
  GI50: > 100 µM
HL-60
  GI50: > 100 µM (inactive)
HOP-62
  GI50: > 100 µM (inactive)
HOP-92
  GI50: > 100 µM (inactive)
HT-29
  GI50: > 100 µM (inactive)
Hs-578T
  GI50: > 100 µM (inactive)
IGROV-1
  GI50: > 100 µM (inactive)
K562
  GI50: > 100 µM (inactive)
KM12
  GI50: > 100 µM (inactive)
LOX IMVI
  GI50: > 100 µM (inactive)
MCF7
  GI50: > 100 µM (inactive)
MDA-MB-231
  GI50: > 100 µM (inactive)
MDA-MB-435
  GI50: > 100 µM (inactive)
MDA-N
  GI50: > 100 µM (inactive)
MOLT-4
  GI50: > 100 µM (inactive)
Malme-3M
  GI50: > 100 µM (inactive)
NCI-H226
  GI50: > 100 µM (inactive)
NCI-H23
  GI50: > 100 µM (inactive)
NCI-H460
  GI50: > 100 µM (inactive)
NCI-H522
  GI50: > 100 µM (inactive)
NCI/ADR-RES
  GI50: > 100 µM (inactive)
OVCAR-3
  GI50: > 100 µM (inactive)
OVCAR-4
  GI50: > 100 µM (inactive)
OVCAR-5
  GI50: > 100 µM (inactive)
OVCAR-8
  GI50: > 100 µM (inactive)
PC-3
  GI50: > 100 µM (inactive)
RPMI-8226
  GI50: > 100 µM (inactive)
SF-268
  GI50: > 100 µM (inactive)
SF-295
  GI50: > 100 µM (inactive)
SF-539
  GI50: > 100 µM (inactive)
SK-MEL-28
  GI50: > 100 µM (inactive)
SK-MEL-2
  GI50: > 100 µM (inactive)
SK-MEL-5
  GI50: 79.4 µM (inactive)
SN12C
  GI50: > 100 µM (inactive)
SNB-75
  GI50: > 100 µM (inactive)
SR
  GI50: > 100 µM (inactive)
SW-620
  GI50: > 100 µM (inactive)
TK-10
  GI50: > 100 µM (inactive)
U-251
  GI50: > 100 µM (inactive)
UACC-257
  GI50: 63.4 µM (inactive)
UO-31
  GI50: > 100 µM (inactive)
